Measurements taken from patent US10709724B2, “Methods of treating mitochondrial dysfunction” (Ecole Polytechnique Federale de Lausanne (EPFL), priority 2011, dated 2020).
“Also recorded” adds a separate entry of the source.

How the values were obtained:
C2C12 myotubes = assay: Mitochondrial gene expression, mtDNA and membrane potential in C2C12 myotubes; format: cell-based
Description: Cell Culture, Transfection, Adenoviral Infection and Mitochondrial Characterization. HEK293T, MEF and C2C12 cells were cultured in DMEM (4.5 g/l glucose, 10% FCS). PARP-1^+/+ and PARP-1^−/− MEFs were prepared as described in (Menissier-de Murcia et al., 1997). SIRT1 and MEFs were kindly provided by Fred Alt (Chea et al., 2005). SIRT3 MER were established according to standard techniques from conditional SERT3^−/− mice. (Picard, F., Gehin, M., Annicotte, J., Rocchi, S., Champy, M. F., O'Malley, B. W., Chambon, P., and Auwerx, J. (2002). SRC-1 and TIF2 control energy balance between white and brown adipose tissues. Cell 111, 931-941.) Deletion of the SIRT3 gene was induced via infection with adenovirus encoding for the Cre recombinase. HEK293T cells were transfected using JetPei reagent (Polyplus Transfections, Illkirch, France) according to the manufacturer's instructions. C2C12 cells were differentiated in DMEM (4.5 g/L glucose, 2% horse serum) after reaching confluency for 2 days, followed by 2 days of PJ34 treatment (10 μM). PARP-1 shRNA constructs were described in (Shah et al., 2005). Human PARP-1 and siRNAs were obtained from Dharmacon (Thermo Scientific). The adenovirus encoding for FLAG-HA-PGC-1α, control and SIRT1 shRNAs were a kind gift from Pere Puigserver and were used (MOI=100) in C2C12 myotubes as described (Canto et al., 2009). Mitochondrial charge determination was performed as described (Bai et al., 2001) and DNA strand breaks were quantified by TUNEL assays according to the manufacturer's instructions (Millipore).
mRNA and mtDNA Analysis. Total RNA was prepared using TRIzol (Invitrogen) according to the manufacturer's instructions. RNA was treated with DNase, and 2 μg of RNA was used for reverse transcription (RT). cDNA was purified on QIAquick PCR cleanup columns (Qiagen, Valencia, Calif., USA). 50× diluted cDNA was used for RT-quantitative PCR (RT-VCR) VCR) reactions (Bai et al., 2007). The RT-qPCR reactions were performed using the Light-Cycler system (Roche Applied Science) and a qPCR Supermix (Qiagen) with the primers for mice summarized in Table 1 and 4, and with the primers for worms summarized on Table 7. mtDNA quantification was performed as described (Lagouge et al., 2006) with the primers indicated in Table 2 and 5.
Mitochondrial DNA Measurement The assay was performed as described (Lagouge et al., 2006). DNA. was extracted using the standard proteinase K digestion following phenol-chloroform extraction. Mitochondrial and genomic DNA was determined using specific primers in qPCR reactions (primers summarized in Table 2 and 5.) and was expressed as percentage of WT.

C. elegans = assay: Worm respiration assay (Seahorse XF24); format: in vivo; conditions: day 3 adult worms
Description: Worm Respiration Assays Oxygen consumption was measured using the Seahorse XF24 equipment (Seahorse Bioscience Inc., North Billerica, Mass.) as described in Yamamoto et al. Typically, 200 animals per conditions were recovered from NGM plates with M9 medium, washed three times in 2 mLM9 to eliminate residual bacteria, and resuspended in 500 μL M9 medium. Worms were transferred in 24-well standard Seahorse plates (#100777-004) (50 worms per well) and oxygen consumption was measured 6 times. Respiration rates were normalized to the number of worms in each individual well. NAD measurement by HPLC For NAD+ quantification, approximately 1000 worms were collected in M9 buffer, washed five times to remove residual bacteria and flash-frozen in liquid nitrogen and stored at −80° C. until analysis. Extraction was started by adding 250 μl of 1.6M perchloric acid on frozen samples, followed by extensive homogenization in a Qiagen tissuelyser, and centrifugation at 20.000 g for 15 min. The supernatant was recovered and neutralized with a 3M potassium carbonate solution. After centrifugation, 100 μl of supernatant was filtered and used for NAD measurement using an HPLC system (Agilent) with a Supelco LC-18-T column (Sigma), as described in Yoshino et al. (Yoshino, K. F. Mills, M. J. Yoon, S. Imai, Nicotinamide Mononucleotide, a Key NAD(+) Intermediate, Treats the Pathophysiology of Diet- and Age-Induced Diabetes in Mice. Cell Metab 14, 528 (2011)).

GPR109A = molecular target: T1, GPR109A (Homo sapiens, UniProt Q8TDS4); format: cell-based; conditions: GPR109A-expressing Chem-4 cells
T1 construct: host or cells: Chem-4 cells (Ready-to-Assay GPR109A Nicotinic Acid Receptor Cells)
T1 sequence (Q8TDS4 whole entry): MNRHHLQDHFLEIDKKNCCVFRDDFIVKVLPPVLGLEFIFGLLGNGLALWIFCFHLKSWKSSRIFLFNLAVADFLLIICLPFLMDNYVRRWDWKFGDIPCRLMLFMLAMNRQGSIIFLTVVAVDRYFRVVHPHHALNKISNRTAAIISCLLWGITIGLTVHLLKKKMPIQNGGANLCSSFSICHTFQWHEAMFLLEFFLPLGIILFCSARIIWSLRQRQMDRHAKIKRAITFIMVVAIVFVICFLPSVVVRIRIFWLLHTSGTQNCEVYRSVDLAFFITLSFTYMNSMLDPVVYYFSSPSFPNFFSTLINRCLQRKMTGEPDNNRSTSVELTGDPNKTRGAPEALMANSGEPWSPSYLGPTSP
Description: GPR109A—Calcium Mobilization Assay. Ready-to-Assai™ GRP109A Nicotinic Acid Receptor Cells were used to measure calcium mobilization as specified by the manufacturer (Millipore). Calcium flux was determined using excitation at 340 and 380 nm in a fluorescence spectrophotometer (Victor X4, Perkin Elmer) in a 180 seconds time course, adding the ligand at 60 seconds. Internal validation was made using 0.1% Triton X-100 for total fluorophore release and 10 mM EGTA to chelate free calcium. Similarly, GPR109A specificity was internally validated using control cells devoid of GRP109A overexpression. Liver triglyceride measurement Liver triglycerides were measured from 20 mg of liver tissue using a variation of the Folch method, as described in Bai et al. (Bai et al., PARP-2 regulates SIRT1 expression and whole-body energy expenditure. (2011). Cell Metab 13, 450-460.

| Structure (SMILES) | mitochondrial DNA content (C2C12 myotubes; 1 μM, 48 h) | mitochondrial membrane potential (C2C12 myotubes; 1 μM, 48 h) | expression of mitochondrial genes (Ndufa2, Ndufa3, MCAD, PDK4, UCP3) (C2C12 myotubes; 48 hrs) | UCP3 mRNA expression with SIRT1 knock-down (C2C12 myotubes; SIRT1 shRNA) | mitochondrial gene expression with SIRT1 knock-down (C2C12 myotubes; SIRT1 shRNA) | oxygen consumption (respiration) (C. elegans) | GPR109A activation (calcium flux) (GPR109A) |
| --- | --- | --- | --- | --- | --- | --- | --- |
| CN(C)CC(=O)Nc1ccc2[nH]c(=O)c3ccccc3c2c1 [PJ34] | higher mitochondrial DNA content | higher mitochondrial potential | increased expression of several mitochondrial genes | persistent increase in UCP3 mRNA expression | largely blunted | – | – |
| NC(=O)c1ccc[n+]([C@@H]2O[C@H](CO)[C@@H](O)[C@H]2O)c1 [NR, nicotinamide riboside] | – | – | – | – | – | increased respiration; also recorded: Oxygen consumption was increased | did not activate GPR109A |
